In patent US20030065039A1, “Biologically active 1,3-bis-aromatic-prop-2-en-1-ones, 1,3-bis-aromatic-propan-1-ones, and 1,3-bis-aromatic-prop-2-yn-1-ones” (Statens Serum Institute, priority 1997, published 2003):
Like-named read-outs stand apart in the source and are kept apart here.

How the values were obtained:
Assay type in all cases: cell-based
Leishmania promastigotes = Leishmania promastigotes Assay; conditions: read-out: Leishmania IC50 ± SD
Method: A WHO reference vaccine strain of L. major originally isolated from a patient in Iran and a Kenyan strain of L. donovani (MHOM(/KE/85/NLB 274) were cultured in medium 199 containing 0.02 mg/ml gentamycin, 25 mM Hepes, 4 mM L-glutamine, and 20% heat inactivated fetal calf serum (FCS). Incubation was carried out at 26° C. Promastigotes were harvested on day 3 and 6 of the culture and used for the parasite growth inhibition.
The effect of the test compounds on promastigotes was assessed by a method similar to the one described by Pearson et al., by incubating promastigotes (3×10^6/ml) at 26° C. for 2 hrs in the presence of a given compound or the medium alone in 96 wells flat bottom microtiter plates. Following incubation, 100 μCi of 3H-thymidine was added to each well and further incubated for 18 hrs. Promastigotes were then harvested on filter paper by means of a cell harvester, extensively washed with distilled water and counted in a scintillation counter. The promastigotes were also counted microscopically and their flagellar motility was assessed.

human lymphocytes = experiment: Lymphocyte Proliferation Assay; conditions: read-out: Lymphocytes IC50 ± SD
Method: Human blood mononuclear cells (BMNC) from heparinized blood were isolated by metrizoate sodium-Ficoll density gradient centrifugation, washed 3 times in RPMI 1640 medium supplemented with 5% FCS and with 400 IU of penicillin plus 400 μg/ml streptomycin. BMNC were resuspended in the medium and cultured in triplicate, 0.63×10^5/ml and 160 μl per vial, in round-bottom microtiter plates with 20 μl of various concentrations of the test compound. Immediately prior to incubation, optimum concentrations of the mitogen phytohaemagglutinin (PHA) and the antigen purified protein derivative of tuberculin (PPD) were added to the cultures in a volume of 20 μl. Unstimulated control cultures were always included. Cultures were incubated for 3 or 7 days. The degree of lymphocyte proliferation was estimated by ^3H-thymidine (1 μCi per well) addition 24 h before the cells were harvested on glass fiber filters by means of a harvesting machine), and ^3H-thymidine incorporation was measured in a liquid scintillation counter. For each set of triplicate values, the median was recorded. Unstimulated cultures were always included as controls.

Plasmodium falciparum = Plasmodium falciparum Assay; conditions: 3-H-hypoxanthine incorporation, 48 hours, read-out: Plasmodium IC50 ± SD
Method: The experiments in which compounds were tested for their ability to inhibit parasite growth were performed by a modification of the method originally described by Jensen et al. (1982). 50 μl of parasitized erythrocytes (parasitemia approximately 1%) in a concentration of 5×10^8/ml and 50 μl of RPMI medium containing different concentrations of the test compound was added to each well of a 96 well flat-bottomed microtiter plate. The cultures were then incubated for 48 hours, 24 hours before termination of the culture adding 20 μl of 3-H-hypoxanthine (40 uCi/ml) was added to each well. The cultures were then harvested onto glass fiber filters using a Skatron cell harvester, and the incorporation of 3-H-hypoxanthine into the DNA of dividing parasites was determined by liquid scintillation spectrometry. Control cultures with uninfected erythrocytes and infected erythrocytes in RPMI medium without test compounds were always performed in parallel to the test cultures. In some experiments thin smears of parasite cultures were stained by Giemsa and examined under microscope (×1000). The test compounds described above, were diluted in RPMI medium immediately before use. In the experiments, chloroquine phosphate was used as a positive control as a drug known to inhibit parasite growth.

[1] = Leishmania, promastigotes, 3H-thymidine uptake
[2] = Lymphocyte, PHA provoked proliferation of human lymphocytes
[3] = promastigotes, 3H-thymidine uptake
[4] = PHA provoked proliferation of human lymphocytes

Row | Structure (SMILES) | IC50 (Leishmania promastigotes; [1]) [µM] | IC50 (human lymphocytes; [2]) [µM] | IC50 (Plasmodium falciparum; Plasmodium falciparum) [µM] | IC50 (Leishmania promastigotes; [3]) [µM] | IC50 (human lymphocytes; [4]) [µM] | IC50 (Plasmodium falciparum) [µM] | also measured
1 | CCCCOc1ccc(C(=O)/C=C/c2ccc(OC)cc2OC)cc1 [2,4-OCH3-4′-OC4H9, 2,4-dimethoxy-4′-butoxychalcone] | 95 ± 10 | – | – | – | – | – | –
2 | COc1ccc(OC)c(/C=C/C(=O)c2ccc(O)cc2)c1 [2,5-OCH3-4′-OH, 2,5-dimethoxy-4′hydroxychalcone] | 23 ± 2 | 22 ± 1 | – | – | – | – | –
3 | COc1ccc(C(=O)/C=C/c2ccc(N(C)C)cc2)c(OC)c1OC [4-N(CH3)2-2′,3′,4′-OCH3, 4-dimethylamino-2′,3′,4′-trimethoxychalcone] | 21 ± 2 | 35 ± 2 | 22 | – | – | – | –
4 | COc1ccc(/C=C/C(=O)c2ccccc2O)c(OC)c1 [2,4-OCH3-2′-OH] | – | – | – | 35 ± 2 | 144 ± 9 | 28 | –
5 | O=C(/C=C/c1ccc([N+](=O)[O-])cc1)c1ccc([N+](=O)[O-])cc1 [4′,4-NO2, 4,4′-dinitro-chalcone] | – | – | – | – | – | – | IC50 (Leishmania promastigotes; Leishmania): 26 ± 4 µM; IC50 (human lymphocytes; Homo sapiens, Lymphocyte): 51 ± 3 µM
6 | COc1c(/C=C/C(=O)c2ccc(O)cc2)ccc(O)c1C [2-OCH3-3-methyl-4,4′-OH, 2-methoxy-3-methyl-4,4′-dihydroxychalcone] | 22 ± 3 | 27 ± 4 | 33 | – | – | – | –
7 | CCCCCCc1cc(/C=C/C(=O)c2ccc(O)cc2)c(OC)cc1O [2-OCH3-4,4′-OH-5-hexyl, 2-methoxy-4,4′-dihydroxy-5-hexylchalcone] | 9.7 ± 0.9 | 46 ± 3 | 5.1 | – | – | – | –
8 | COc1ccc(C(=O)/C=C/c2cccc(Oc3ccccc3)c2)c(OC)c1OC [3-OC6H5-2′,3′,4′-OCH3, 3-phenoxy-2′,3′,4′-trimethoxychalcone] | 8.7 ± 0.5 | 17 ± 1 | 8.9 | – | – | – | –
9 | COc1cccc(/C=C/C(=O)c2ccc(O)cc2)c1OC [2,3-OCH3-4′-OH, 2,3-dimethoxy-4′-hydroxychalcone] | 89 ± 9 | 70 ± 4 | 25 | – | – | – | –
10 | CCCc1cc(/C=C/C(=O)c2ccc(O)cc2)c(OC)cc1O [2-OCH3-4,4′-OH-5-propyl, 2-methoxy-4,4′-dihydroxy-5-propylchalcone] | 26 ± 2 | 41 ± 3 | 10 | – | – | – | –
11 | COc1cc(OC)c(OC)cc1/C=C/C(=O)c1ccc(O)cc1 [2,4,5,-OCH3-4′-OH] | – | – | – | 16 ± 2 | 28 ± 2 | 13 | –
12 | C=CCOc1ccc(C(=O)/C=C/c2cc(OC)c(OC)c(OC)c2)cc1 [3,4,5-OCH3-4′-allyloxy] | – | – | – | 41 ± 4 | 30 ± 1 | – | –
13 | COc1ccc(/C=C/C(=O)c2ccccc2)c(OC)c1 [2,4-OCH3] | – | – | – | 15 | 48 ± 2 | 34 | –
14 | CCCCOc1ccc(C(=O)/C=C/c2c(OC)cccc2OC)cc1 [2,6-OCH3-4′-OC4H9, 2,6-dimethoxy-4′-butoxychalcone] | 104 ± 9 | 127 ± 10 | 14 | – | – | – | –
15 | C=CCOc1ccc(C(=O)/C=C/c2cc(OC)ccc2OC)cc1 [2,5-OCH3-4′-allyloxy] | – | – | – | 73 ± 4 | 55 ± 2 | 23 | –
16 | COc1ccc(OC)c(C(=O)/C=C/c2ccc(Cl)cc2Cl)c1 [2′,5′-OCH3-2,4-Cl] | – | – | – | 7.8 ± 0.7 | 5.7 ± 0.5 | – | –
17 | O=C(/C=C/c1ccc(F)cc1)c1ccc(F)cc1 [4′,4-F, 4,4′-difluorochalcone] | 15 ± 2 | 22 ± 1 | 43 | – | – | – | –
18 | O=C(/C=C/c1ccccc1)c1ccccc1 [Chalcon] | 20 ± 1 | 21 ± 2 | 44 | – | – | – | –
19 | COc1cc(O)ccc1/C=C/C(=O)c1ccc(N(C)C)cc1 [2-OCH3-4-OH-4′-N(CH3)2] | – | – | – | 49 ± 4 | 111 ± 7 | 23 | –
20 | COc1ccc(/C=C/C(=O)c2ccc(F)cc2F)c(OC)c1 [2′,4′-F-2,4-OCH3] | – | – | – | 26 ± 2 | 74 ± 4 | 49 | –
21 | COc1cc(/C=C/C(=O)c2ccc(O)cc2O)ccc1O [2′,4′,4-OH-3-OCH3] | – | – | – | 16 ± 2 | 31 ± 2 | 43 | –
22 | O=C(/C=C/c1ccc(O)c(O)c1)c1ccc(O)cc1O [2′,4′,3,4-OH] | – | – | – | 66 ± 2 | 16 ± 1 | 49 | –

Row | Structure (SMILES) | IC50 (Leishmania promastigotes; [1]) [µM] | IC50 (human lymphocytes; [2]) [µM] | IC50 (Plasmodium falciparum; Plasmodium falciparum) [µM] | IC50 (Leishmania promastigotes; [3]) [µM] | IC50 (human lymphocytes; [4]) [µM] | IC50 (Plasmodium falciparum) [µM] | also measured
23 | C=CCOc1ccc(C(=O)/C=C/c2cc(OCC=C)ccc2OCC=C)cc1 [2,5,4′-allyloxy] | – | – | – | 38 ± 2 | 61 ± 3 | – | –
24 | COc1cc(O)cc(C)c1/C=C/C(=O)c1ccc(O)cc1 [2-OCH3-4,4′-OH-6-methyl, 2-methoxy-4,4′-dihydroxy-6-methylchalcone] | 39 ± 5 | 53 ± 6 | 28 | – | – | – | –
25 | CCCCCCOc1ccc(C(=O)/C=C/c2ccc(OC)cc2OC)cc1 [2,4-OCH3-4′-OC6H13] | – | – | – | 136 ± 15 | – | 14 | –
26 | COc1ccc(C(=O)/C=C/c2ccc(Cl)cc2Cl)c(OC)c1OC [2′,3′,4′-OCH3-2,4-Cl] | – | – | – | 6.3 ± 0.6 | 7.8 ± 0.9 | 7.9 | –
27 | COc1ccc(/C=C/C(=O)c2ccccc2Br)c(OC)c1 [2′-Br-2,4-OCH3, 2,4-dimethoxy-2′-bromochalcone] | 14 ± 2 | 35 ± 3 | 26 | – | – | – | –
28 | COc1cc(/C=C/C(=O)c2ccc(O)cc2)cc(OC)c1 [3,5-OCH3-4′-OH] | – | – | – | 12 ± 1 | 14 ± 1 | 25 | –
29 | COc1ccc(/C=C/C(=O)c2ccccc2OC)c(OC)c1 [2,4,2′-OCH3] | – | – | – | 16 ± 1 | 26 ± 2 | – | –
30 | COc1ccc(C(=O)/C=C/c2ccc(F)c(F)c2)c(OC)c1 [2′,4′-OCH3-3,4-F] | – | – | – | 16 ± 1 | 5.3 ± 0.6 | 10 | –
31 | C=CCOc1ccc(C(=O)/C=C/c2cccc(OC)c2OC)cc1 [2,3-OCH3-4′-allyloxy] | – | – | – | 49 ± 3 | 96 ± 6 | 26 | –
32 | CCCCOc1ccc(C(=O)/C=C/c2cc(OC)cc(OC)c2)cc1 [3,5-OCH3-4′-OC4H9] | – | – | – | 35 ± 3 | 52 ± 3 | 17 | –
33 | COc1c(/C=C/C(=O)c2ccc(O)cc2)ccc(O)c1CC=C(C)C [Licochalcone C, 2-methoxy-3-(3-methyl-2-butenyl)-4,4′-dihydroxychalcone] | 55 ± 3 | 53 ± 2 | 16 | – | – | – | –
34 | CCCCCCOc1ccc(C(=O)/C=C/c2ccccc2)cc1 [4′-OC6H13] | – | – | – | 62 ± 5 | 99 ± 7 | 17 | –
35 | C=CCOc1ccc(C(=O)/C=C/c2c(OC)cccc2OC)cc1 [2,6-OCH3-4′-allyloxy] | – | – | – | 81 ± 7 | 96 ± 8 | – | –
36 | C=CCOc1ccc(C(=O)/C=C/c2cc(OC)c(CCCC)c(OC)c2)cc1 [4-C4H9-3,5-OCH3-4′-allyloxy, 4-butyl-3,5-dimethoxy-4′-(2-propenyloxy)chalcone] | 90 ± 14 | – | – | – | – | – | –
37 | O=C(/C=C/c1ccc(O)cc1)c1ccc(O)cc1 [4′-4-OH] | – | – | – | 83 ± 5 | 59 ± 3 | 17 | –
38 | COc1ccc(C(=O)/C=C/c2cccc(F)c2)c(OC)c1OC [3-F-2′,3′,4′-OCH3, 3-fluoro-2′,3′,4′-trimethoxychalcone] | 9.7 ± 0.9 | 6.4 ± 0.4 | 29 | – | – | – | –
39 | COc1cccc(OC)c1/C=C/C(=O)c1ccc(O)cc1 [2,6-OCH3-4′-OH] | – | – | – | 82 ± 8 | 60 ± 2 | – | –
40 | C=CCOc1ccccc1C(=O)/C=C/c1ccc(OC)cc1OC [2,4-OCH3-2′-allyloxy] | – | – | – | 5 ± 0.7 | – | – | –
41 | CN(C)c1ccc(C(=O)/C=C/c2ccc([N+](=O)[O-])cc2)cc1 [4′-N(CH3)2-4-NO2, 4-nitro-4′-dimethylaminochalcone] | – | – | 93 | – | – | – | –
42 | COc1cc(OC)c(/C=C/C(=O)c2ccc(O)cc2)c(OC)c1 [2,4,6-OCH3-4′-OH] | – | – | – | 106 ± 8 | 44 ± 2 | – | –
43 | O=C(/C=C/c1ccc(F)cc1)c1ccc(C2CCCCC2)cc1 [4′-cC6H11-4-F, 4-fluoro-4′-cyclohexylchalcone] | 27 ± 2 | 74 ± 2 | – | – | – | – | –
44 | CN(C)c1ccc(/C=C/C(=O)c2ccc(O)cc2)cc1 [4-N(CH3)2-4′-OH] | – | – | – | 79 ± 6 | 130 ± 13 | – | –
